Results: patent US20100130737A1, “Regulating Agent of GPR34 Receptor Function” (TAKEDA PHARMACEUTICAL COMPANY LIMITED, priority 2005, published 2010)
pIC50: −log10 of the molar value.

Legend:
human GPR34 = human GPR34 (Homo sapiens, UniProt Q9UPC5); assay: Human GPR34 antagonist activity indicated by changes in intracellular calcium concentration (FLIPR); format: cell-based; design: expressed in transfected cells; host or cells: CHO cells (human GPR34CHO line) stably transfected with pCR3.1 human lung Gα16; conditions: CHO cells expressing human GPR34/Gα16, against 2 μM lysoPS final concentration, Fluo-3AM
human GPR34, sequence (Q9UPC5 whole entry): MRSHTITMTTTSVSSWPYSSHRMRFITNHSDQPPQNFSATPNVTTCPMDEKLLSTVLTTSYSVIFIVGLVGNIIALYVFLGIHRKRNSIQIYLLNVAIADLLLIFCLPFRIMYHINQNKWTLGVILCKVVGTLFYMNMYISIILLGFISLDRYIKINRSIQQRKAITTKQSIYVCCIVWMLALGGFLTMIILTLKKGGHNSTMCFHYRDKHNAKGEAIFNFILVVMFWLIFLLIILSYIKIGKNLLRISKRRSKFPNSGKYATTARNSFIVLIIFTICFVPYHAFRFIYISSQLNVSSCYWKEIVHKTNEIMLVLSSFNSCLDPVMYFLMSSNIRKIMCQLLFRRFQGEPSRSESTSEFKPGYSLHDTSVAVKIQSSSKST
Protocol: CHO cells expressing human GPR34/Gα were diluted to 3×10^4/100 μl in cell culture medium [nucleic acid-free Minimum Essential Alpha Medium (Invitrogen) containing 10% dialyzed fetal bovine serum (Invitrogen) 0.5 mg/ml Geneticin (Invitrogen), penicillin and streptomycin (Invitrogen)], dispensed 100 μl per well into a Black walled 96-well plate (Costar), and cultured overnight in a CO2 incubator. Changes in intracellular calcium concentration were measured with a FLIPR (Molecular Device) by the methods described below.
50 μg of Fluo-3AM (Dojindo) was dissolved in 21 μl of DMSO (Dojindo), an equal amount of 20% pluronic acid (Molecular Probes) was added and mixed, and this was added to 10.6 ml of assay buffer [prepared by adding 20 ml of 1 M HEPES (pH 7.4, Dojindo) to HBSS (Invitrogen), and then adding 10 ml of a solution obtained by dissolving 710 mg of Probenecid (Sigma) in 5 ml of 1 N NaOH and then adding and mixing 5 ml of the HBSS/HEPES solution)] with 105 μl of fetal bovine serum added thereto to prepare a fluorescent dye solution. The medium was removed from the cell plate, 100 μl per well of the fluorescent dye solution was immediately poured in, and the cells were cultured for 1 hour in a CO2 incubator to incorporate the fluorescent dye into the cells. After culture, the cells were washed with the aforementioned assay buffer. The compound was dissolved in DMSO (Wako Pure Chemical), diluted with DMSO as necessary, added to the aforementioned assay buffer to the target concentration and poured into the plate. To measure antagonist activity, 8 μM lysophosphatidyl serine (lysoPS, Alexis) solution (2 μM final concentration during reaction) was poured into the plate, which was set in the FLIPR. Following these preliminaries, the agonist effect was measured in the FLIPR by measuring changes in intracellular calcium concentration up to 180 seconds after addition of the sample, and after 200 seconds lysoPS was added and the antagonist effect was measured. In the case of the agonist effect, the EC50 value of the added compound was calculated from the dose reaction curve using changes in fluorescent strength from 0 to 180 seconds after the start of the reaction. In the case of the antagonist effect, the IC50 was calculated from the dose reaction curve using changes in maximum fluorescent strength after 200 to 380 seconds of reaction time. The data was analyzed using “GraphPad PRISM4”.

Structure (SMILES)	melting point	pIC50 (human GPR34)
O=C(N[C@@H](Cc1ccc(OCc2ccccc2)cc1)C(=O)O)c1cc2ccc(-c3ccc(Cl)cc3)cc2s1 [Example C122, O-Benzyl-N-{[6-(4-chlorophenyl)-1-benzothiophene-2-yl]carbonyl}tyrosine]	237 to 239 °C	≥ 6.00
O=C(N[C@@H](Cc1ccc(OCc2ccccc2)cc1)C(=O)O)c1cc2cc(-c3ccc(Cl)cc3)ccc2s1 [Example C123, O-Benzyl-N-{[5-(4-chlorophenyl)-1-benzothiophene-2-yl]carbonyl}tyrosine]	206 to 207 °C	≥ 6.00
O=C(N[C@@H](Cc1ccc(OCc2ccccc2)cc1)C(=O)O)c1cc2cc(C#Cc3ccccc3)ccc2s1 [Example C139, O-Benzyl-N-{[5-(phenylethynyl)-1-benzothiophene-2-yl]carbonyl}tyrosine]	198 to 199 °C	≥ 6.00
Cc1c(C(=O)N[C@@H](Cc2ccc(OCc3ccccc3)cc2)C(=O)O)oc2ccc(-c3ccc(Cl)cc3)cc12 [Example C142, O-Benzyl-N-{[5-(4-chlorophenyl)-3-methyl1-benzofuran-2-yl]carbonyl}tyrosine]	209 to 210 °C	≥ 6.00
O=C(N[C@@H](Cc1ccc(OCc2ccccc2)cc1)C(=O)O)c1cc2ccc(-c3ccc(Cl)cc3)cc2o1 [Example C143, O-Benzyl-N-{[6-(4-chlorophenyl)-1-benzofuran-2-yl]carbonyl}tyrosine]	170 to 171 °C	≥ 6.00
O=C(N[C@@H](Cc1ccc(OCc2ccccc2)cc1)C(=O)O)c1nc2ccc(/C=C/c3ccccc3)cc2[nH]1 [Example C144, O-Benzyl-N-({6-[(E)-2-phenylethenyl]-1H-benzimidazol-2-yl)carbonyl)tyrosine]	247 °C (dec.)	≥ 6.00
O=C(N[C@@H](Cc1ccc(OCc2ccccc2)cc1)C(=O)O)C1=Cc2ccc(-c3ccc(Cl)cc3)cc2SC1 [Example C145, O-Benzyl-N-{[7-(4-chlorophenyl)-2H-thiochromene-3-yl]carbonyl}tyrosine]	225 to 227 °C	≥ 6.00
O=C(N[C@@H](Cc1ccc(OCc2ccccc2)cc1)C(=O)O)c1cc2cc(-c3ccc(Cl)cc3)ccc2[nH]c1=O [Example C146, O-Benzyl-N-{[6-(4-chlorophenyl)-2-oxo-1,2-dihydroquinolin-3-yl]carbonyl}tyrosine]	298 to 299 °C	≥ 6.00
Nc1c(C(=O)N[C@@H](Cc2ccc(OCc3ccccc3)cc2)C(=O)O)oc2cc(-c3ccc(Cl)cc3)ccc12 [Example C147, N-{[3-Amino-6-(4-chlorophenyl)-1-benzofuran-2-yl]carbonyl}-O-benzyltyrosine]	250 °C (dec.)	≥ 6.00
O=C(N[C@@H](Cc1ccc(OCc2ccccc2)cc1)C(=O)O)c1cc2cc(-c3ccc(Cl)cc3)ccc2o1 [Example C148, O-Benzyl-N-{[5-(4-chlorophenyl)-1-benzofuran-2-yl]carbonyl}tyrosine]	250 to 251 °C	≥ 6.00
O=C(N[C@@H](Cc1ccc(OCc2cccc(F)c2)cc1)C(=O)O)c1cc2ccc(-c3ccc(Cl)cc3)cc2o1 [Example C153, N-{[6-(4-Chlorophenyl)-1-benzofuran-2-yl]carbonyl}-O-(3-fluorobenzyl)tyrosine]	162 to 163 °C	≥ 6.00
O=C(N[C@@H](Cc1ccc(OCc2ccccc2)cc1)C(=O)O)c1cc2ccc(-c3ccc(Cl)cc3)cc2[nH]1 [Example C163, O-Benzyl-N-{[6-(4-chlorophenyl)-1H-indol-2-yl]carbonyl}tyrosine]	202 to 204 °C	≥ 6.00
Cn1c(C(=O)N[C@@H](Cc2ccc(OCc3ccccc3)cc2)C(=O)O)cc2ccc(-c3ccc(Cl)cc3)cc21 [Example C164, O-Benzyl-N-{[6-(4-chlorophenyl)-1-methyl-1H-indole-2-yl]carbonyl}tyrosine]	205 to 206 °C	≥ 6.00
